Test results published in patent US20110143406A1, “Novel (S,S) -Butanediol Dehydrogenase, Gene for the Same, and Use of the Same” (Kaneka Corporation, priority 2006, published 2011).
Like-named read-outs stand apart in the source and are kept apart here.

Legend:
Format in all cases: biochemical, Ochrobactrum sp. KNKc71-3
[1] = tested on: ROB ((S,S)-butanediol dehydrogenase)
Protocol: Using the purified ROB obtained in Example 1, oxidation activity measurement were carried out using, as substrates, optical isomers of each of 2-butanol, 2-pentanol, 1,2-propanediol, 2,3-butanediol and 3-chloro-1,2-propanediol. NAD^+ (2 mM), each compound (10 mM) and the enzyme solution were added to 100 mM phosphate buffer (pH 8.0), the reaction was allowed to proceed at 30° C. for 1 minute, and the increase in absorbance at the wavelength 340 nm.

[2] = tested on: ROB ((S,S)-butanediol dehydrogenase); conditions: reduction; each compound 1 mM, NADH 0.167 mM, phosphate buffer pH 5.5, 30° C., 3 minutes; activity against 2,3-butanedione taken as 100
[3] = tested on: ROB ((S,S)-butanediol dehydrogenase); assay: Substrate specificity of ROB: oxidation activity; conditions: each compound 10 mM, NAD+ 2 mM, phosphate buffer pH 8.0, 30° C., 1 minute, activity against 2,3-butanediol taken as 100
Protocol: Using the purified ROB obtained in Example 1, oxidation activity measurements were carried out by adding NAD^+ (2 mM), each compound (10 mM) shown in Table 2 and the enzyme solution to 100 mM phosphate buffer (pH 8.0), the reaction was allowed to proceed at 30° C. for 1 minute, and the increase in absorbance at the wavelength 340 nm was measured. The relative activity data are summarized in Table 2, with the activity against 2,3-butanediol being taken as 100.

[4] = tested on: ROB ((S,S)-butanediol dehydrogenase); remark: listed apart in the source
[5] = Specific oxidation activity of purified enzyme; conditions: (2S,3S)-2,3-butanediol 100 mM, NAD+ 2 mM, pH 8.0, 30° C.
Protocol: In the examples described below, the oxidation activity of (S,S)-butanediol dehydrogenase was determined by adding (2S,3S)-2,3-butanediol (100 mM), NAD^+ (2 mM) and an enzyme solution to 100 mM phosphate buffer (pH 8.0) and measuring the increase in absorbance at the wavelength 340 nm at 30° C. The enzyme activity reducing 1 μmol of NAD^+ to NADH per minute was defined as 1 unit.
Ammonium sulfate was added to this active fraction to a concentration of 1 M, and the mixture was submitted to a Phenyl-TOYOPEARL 650M (product of Tosoh) column (50 ml) equilibrated in advance with 10 mM phosphate buffer (pH 7.0) containing 1 M ammonium sulfate for adsorption of the enzyme. After washing the column with the same buffer, the active fraction was eluted on a linear gradient from 1 M to 0 M ammonium sulfate. Ammonium sulfate was added to this active fraction to a concentration of 1.2 M, and the mixture was submitted to a Butyl-TOYOPEARL 650S (product of Tosoh) column (25 ml) equilibrated in advance with 10 mM phosphate buffer (pH 7.0) containing 1.2 M ammonium sulfate for adsorption of the enzyme. After washing the column with the same buffer, the active fraction was eluted on a linear gradient from 1.2 M to 0 M ammonium sulfate. This active fraction was analyzed by sodium dodecyl sulfate-polyacrylamide electrophoresis and found to give a single band. […]

[6] = Optimum temperature for action of ROB; conditions: (2S,3S)-2,3-butanediol oxidation, measured at 10 to 70° C., pH 8.0
Protocol: Using the purified ROB obtained in Example 1, (2S,3S)-2,3-butanediol oxidation activity measurements were carried out at 10 to 70° C. In the activity measurements, (2S,3S)-2,3-butanediol (0.1 M), NAD^+ 2 mM and the enzyme solution were added to 100 mM phosphate buffer (pH 8.0), the reaction was allowed to proceed at 10 to 70° C. for 1 minute, and the increase in absorbance at the wavelength 340 nm were measured.

[7] = oxidation, each compound 10 mM, NAD+ 2 mM, pH 8.0, 30° C., 1 minute, activity against (2S,3S)-2,3-butanediol taken as 100
[8] = reagent 1.0 mM, (2S,3S)-2,3-butanediol 0.1 M, NAD+ 2 mM, pH 8.0, 30° C., reagent-free activity taken as 100

OC[C@H](O)CCl [(S)-3-chloro-1,2-propanediol]
Relative activity (%) [1, 7]: 0.1%

CC(=O)CO [Hydroxyacetone]
Relative activity (%) [2]: 17.9%

CCC(C)O (stereo not drawn) [2-butanol]
Relative activity (%) [3]: 40.4%

C[C@H](O)[C@H](C)O [(2S,3S)-2,3-butanediol]
Relative activity (%) [1, 7]: 100%

CCC[C@@H](C)O [(R)-2-pentanol]
Relative activity (%) [1, 7]: 2.9%

CCC[C@H](C)O [(S)-2-pentanol]
Relative activity (%) [1, 7]: 58.9%

O=[N+]([O-])[O-].[Ag+] [AgNO3]
Relative activity (%) [4, 8]: 30%

CC[C@H](C)O [(S)-2-butanol]
Relative activity (%) ([1]; pH 8): 44.2%

CCCCCC(C)=O [2-heptanone]
Relative activity (%) [2]: 3.8%

OCC(O)CCl (stereo not drawn) [3-chloro-1,2-propanediol]
Relative activity (%) [3]: 3.9%

O=C(O)c1cc[c]([Hg][Cl])cc1 [p-chloromercuribenzoate]
Relative activity (%) [4, 8]: 84%

[Cl-].[Cl-].[Co+2] [CoCl2]
Relative activity (%) ([4]; pH 8): 66%

CC(=O)[O-].[Na+] [Sodium acetate]
Relative activity (%) ([4]; pH 8): 96%

O=C(CO)CCl [1-chloro-3-hydroxyacetone]
Relative activity (%) [2]: 94.3%

CC(=O)C(C)O (stereo not drawn) [Acetoin]
Relative activity (%) [3]: 0.4%

[Cl][Mn][Cl] [MnCl2]
Relative activity (%) [4, 8]: 87%

[Ba+2].[Cl-].[Cl-] [BaCl2]
Relative activity (%) [4, 8]: 56%

CC(O)CCl (stereo not drawn) [1-chloro-2-propanol]
Relative activity (%) [3]: 7.7%

CC(O)Cc1ccccc1 (stereo not drawn) [1-phenyl-2-propanol]
Relative activity (%) [3]: 43.0%

CCCC(C)=O [2-pentanone]
Relative activity (%) [2]: 2.8%

CCO [Ethanol]
Relative activity (%) [3]: 0%

O=C(O)CN(CCN(CC(=O)O)CC(=O)O)CC(=O)O [EDTA]
Relative activity (%) ([4]; pH 8): 95%

[Ca+2].[Cl-].[Cl-] [CaCl2]
Relative activity (%) [4, 8]: 86%

CCOC(=O)C(C)=O [Ethyl pyruvate]
Relative activity (%) [2]: 176%

CC(O)C(C)O (stereo not drawn) [2,3-butanediol]
Relative activity (%) [3]: 100%

[Cl][Hg][Cl] [HgCl2]
Relative activity (%) ([4]; reagent 0.1 mM, (2S,3S)-2,3-butanediol 0.1 M, NAD+ 2 mM, pH 8.0, 30° C., reagent-free activity taken as 100): 41%
Relative activity (%) [4, 8]: 0%

O=S(=O)([O-])[O-].[Mg+2] [MgSO4]
Relative activity (%) [4, 8]: 91%

CCCCCCC(C)O (stereo not drawn) [2-octanol]
Relative activity (%) [3]: 59.6%

CC(C)O [2-propanol]
Relative activity (%) [3]: 5.1%

CCN1C(=O)C=CC1=O [N-ethylmaleimide]
Relative activity (%) ([4]; pH 8): 93%

COC(=O)C(C)O (stereo not drawn) [Methyl lactate]
Relative activity (%) [3]: 0.9%

CCC(O)CC [3-pentanol]
Relative activity (%) [3]: 3.3%

ROB: purified (S,S)-butanediol dehydrogenase from Ochrobactrum sp. KNKc71-3, amino acid sequence SEQ ID NO:1
specific activity [5]: about 119 U/mg-protein
optimum temperature for the activity [6]: 70 °C

O=S(=O)(F)Cc1ccccc1 [Phenylmethylsulfonyl fluoride]
Relative activity (%) [4, 8]: 75%

CC[C@@H](C)O [(R)-2-butanol]
Relative activity (%) ([1]; pH 8): 3.2%

CC(O)CCCO (stereo not drawn) [1,4-pentanediol]
Relative activity (%) [3]: 3.3%

CC(=O)C(C)=O [2,3-butanedione]
Relative activity (%) [2]: 100%

CC(O)CO (stereo not drawn) [1,2-propanediol]
Relative activity (%) [3]: 57.9%

CCCO [1-propanol]
Relative activity (%) [3]: 0%

OC[C@@H](O)CCl [(R)-3-chloro-1,2-propanedio]
Relative activity (%) [1, 7]: 3.5%

CC(O)C(C)O (stereo not drawn) [meso-2,3-butanediol]
Relative activity (%) [1, 7]: 38.9%

CCCC(C)O (stereo not drawn) [2-pentanol]
Relative activity (%) [3]: 58.8%

CCCCC(C)=O [2-hexanone]
Relative activity (%) [2]: 2.8%

CCC(O)CO (stereo not drawn) [1,2-butanediol]
Relative activity (%) [3]: 8.2%

CCC(C)=O [2-butanone]
Relative activity (%) [2]: 0.9%

CC(O)CCO (stereo not drawn) [1,3-butanediol]
Relative activity (%) [3]: 0.5%

C[C@H](O)CO [(S)-1,2-propanediol]
Relative activity (%) [1, 7]: 16.7%

COC(=O)CC(C)=O [Methyl acetoacetate]
Relative activity (%) [2]: 65.1%

CCOC(=O)CC(=O)CCl [Ethyl 4-chloroacetoacetate]
Relative activity (%) [2]: 21.7%

O=S(=O)([O-])[O-].[Cu+2] [CuSO4]
Relative activity (%) [4, 8]: 81%

CCOC(=O)C(C)O (stereo not drawn) [Ethyl lactate]
Relative activity (%) [3]: 1.6%

CC(O)c1ccccc1 (stereo not drawn) [1-phenyl ethanol]
Relative activity (%) [3]: 6.8%

COC(=O)C(C)=O [Methyl pyruvate]
Relative activity (%) [2]: 136%

C[C@@H](O)[C@@H](C)O [(2R,3R)-2,3-butanediol]
Relative activity (%) [1, 7]: 0.6%

O=S(=O)([O-])[O-].[Zn+2] [ZnSO4]
Relative activity (%) [4, 8]: 88%

CCCC(O)CO (stereo not drawn) [1,2-pentanediol]
Relative activity (%) [3]: 4.4%

C[C@@H](O)CO [(R)-1,2-propanediol]
Relative activity (%) [1, 7]: 8.0%

CCCCCCC(C)=O [2-octanone]
Relative activity (%) [2]: 2.8%

CO [Methanol]
Relative activity (%) [3]: 0%

CCCCO [1-butanol]
Relative activity (%) [3]: 0%

CCOC(=O)C(Cl)C(C)=O (stereo not drawn) [Ethyl 2-chloroacetoacetate]
Relative activity (%) [2]: 58.5%
